# Experimental data as given in ChEMBL document CHEMBL2150993, “Substituted thiazoles VII. Synthesis and antitumor activity of certain 2-(substituted amino)-4-phenyl-1,3-thiazole analogs” (2012).
# Activity calls are given as the source filed them. The rule behind the calls is not given here.
# Experiments:
# Type in all cases: functional
# LOX IMVI = assay: Growth inhibition of human LOXIMVI cells after 48 hrs by cell counting analysis; conditions: at 10 µM
# OVCAR-4 = assay: Growth inhibition of human OVCAR4 cells after 48 hrs by cell counting analysis; conditions: at 10 µM
# U-251 = assay: Growth inhibition of human U251 cells after 48 hrs by cell counting analysis; conditions: at 10 µM
# MCF7 = assay: Growth inhibition of human MCF7 cells after 48 hrs by cell counting analysis; conditions: at 10 µM
# NCI-H522 = assay: Growth inhibition of human NCI-H522 cells after 48 hrs by cell counting analysis; conditions: at 10 µM
# HCC 2998 = assay: Growth inhibition of human HCC2998 cells after 48 hrs by cell counting analysis; conditions: at 10 µM
# MOLT-4 = assay: Growth inhibition of human MOLT4 cells after 48 hrs by cell counting analysis; conditions: at 10 µM
# HOP-62 = assay: Growth inhibition of human HOP62 cells after 48 hrs by cell counting analysis; conditions: at 10 µM
# ACHN = assay: Growth inhibition of human ACHN cells after 48 hrs by cell counting analysis; conditions: at 10 µM
# OVCAR-5 = assay: Growth inhibition of human OVCAR5 cells after 48 hrs by cell counting analysis; conditions: at 10 µM
# SNB-19 = assay: Growth inhibition of human SNB19 cells after 48 hrs by cell counting analysis; conditions: at 10 µM
# HOP-92 = assay: Growth inhibition of human HOP92 cells after 48 hrs by cell counting analysis
# SK-MEL-2 = assay: Growth inhibition of human SK-MEL-2 cells after 48 hrs by cell counting analysis; conditions: at 10 µM
# RXF 393 = assay: Growth inhibition of human RXF393 cells after 48 hrs by cell counting analysis
# SK-OV-3 = assay: Growth inhibition of human SKOV3 cells after 48 hrs by cell counting analysis; conditions: at 10 µM
# UACC-62 = assay: Growth inhibition of human UACC62 cells after 48 hrs by cell counting analysis; conditions: at 10 µM
# [1] = Antiproliferative activity against human prostate cancer cells after 48 hrs by cell counting analysis; conditions: Cancer cell lines
# HCT-116 = assay: Growth inhibition of human HCT116 cells after 48 hrs by cell counting analysis; conditions: at 10 µM
# SW-620 = assay: Growth inhibition of human SW620 cells after 48 hrs by cell counting analysis; conditions: at 10 µM
# CCRF-CEM = assay: Growth inhibition of human CCRF-CEM cells after 48 hrs by cell counting analysis; conditions: at 10 µM
# A549 = assay: Growth inhibition of human A549 cells after 48 hrs by cell counting analysis; conditions: at 10 µM
# Malme-3M = assay: Growth inhibition of human MALME-3M cells after 48 hrs by cell counting analysis; conditions: at 10 µM
# NCI-H226 = assay: Growth inhibition of human NCI-H226 cells after 48 hrs by cell counting analysis; conditions: at 10 µM
# EKVX = assay: Growth inhibition of human EKVX cells after 48 hrs by cell counting analysis; conditions: at 10 µM
# IGROV-1 = assay: Growth inhibition of human IGROV1 cells after 48 hrs by cell counting analysis; conditions: at 10 µM
# PC-3 = assay: Growth inhibition of human PC3 cells after 48 hrs by cell counting analysis; conditions: at 10 µM
# [2] = Growth inhibition of human NCI-ADR-RES cells after 48 hrs by cell counting analysis; conditions: at 10 µM
# SR = assay: Growth inhibition of human SR cells after 48 hrs by cell counting analysis; conditions: at 10 µM
# [3] = Antiproliferative activity against human renal cancer cells after 48 hrs by cell counting analysis; conditions: Cancer cell lines
# KM12 = assay: Growth inhibition of human KM12 cells after 48 hrs by cell counting analysis; conditions: at 10 µM
# SN12C = assay: Growth inhibition of human SN12C cells after 48 hrs by cell counting analysis; conditions: at 10 µM
# SF-539 = assay: Growth inhibition of human SF539 cells after 48 hrs by cell counting analysis; conditions: at 10 µM
# MDA-MB-231 = assay: Growth inhibition of human MDA-MB-231 cells after 48 hrs by cell counting analysis; conditions: at 10 µM
# SF-295 = assay: Growth inhibition of human SF295 cells after 48 hrs by cell counting analysis; conditions: at 10 µM
# SK-MEL-28 = assay: Growth inhibition of human SK-MEL-28 cells after 48 hrs by cell counting analysis; conditions: at 10 µM
# MDA-MB-435 = assay: Growth inhibition of human MDA-MB-435 cells after 48 hrs by cell counting analysis; conditions: at 10 µM
# BT-549 = assay: Growth inhibition of human BT549 cells after 48 hrs by cell counting analysis; conditions: at 10 µM
# [4] = Growth inhibition of human NCI-322M cells after 48 hrs by cell counting analysis; conditions: at 10 µM
# SF-268 = assay: Growth inhibition of human SF268 cells after 48 hrs by cell counting analysis; conditions: at 10 µM
# [5] = Antiproliferative activity against human melanoma cells after 48 hrs by cell counting analysis
# SNB-75 = assay: Growth inhibition of human SNB75 cells after 48 hrs by cell counting analysis; conditions: at 10 µM
# HL-60 = assay: Growth inhibition of human HL60 cells after 48 hrs by cell counting analysis; conditions: at 10 µM
# T47D = assay: Growth inhibition of human T47D cells after 48 hrs by cell counting analysis; conditions: at 10 µM
# [6] = Antiproliferative activity against human CNS cancer cells after 48 hrs by cell counting analysis; conditions: Cancer cell lines
# OVCAR-8 = assay: Growth inhibition of human OVCAR8 cells after 48 hrs by cell counting analysis; conditions: at 10 µM
# [7] = Antiproliferative activity against human breast cancer cells after 48 hrs by cell counting analysis; conditions: Cancer cell lines
# MDA-MB-468 = assay: Growth inhibition of human MDA-MB-468 cells after 48 hrs by cell counting analysis
# [8] = Antiproliferative activity against human colon cancer cells after 48 hrs by cell counting analysis; conditions: Cancer cell lines
# [9] = Antiproliferative activity against human leukemia cells after 48 hrs by cell counting analysis
# TK-10 = assay: Growth inhibition of human TK10 cells after 48 hrs by cell counting analysis; conditions: at 10 µM
# K562 = assay: Growth inhibition of human K562 cells after 48 hrs by cell counting analysis; conditions: at 10 µM
# OVCAR-3 = assay: Growth inhibition of human OVCAR3 cells after 48 hrs by cell counting analysis; conditions: at 10 µM
# HT-29 = assay: Growth inhibition of human HT-29 cells after 48 hrs by cell counting analysis; conditions: at 10 µM
# HCT-15 = assay: Growth inhibition of human HCT15 cells after 48 hrs by cell counting analysis; conditions: at 10 µM
# NCI-H23 = assay: Growth inhibition of human NCI-H23 cells after 48 hrs by cell counting analysis; conditions: at 10 µM
# CAKI-1 = assay: Growth inhibition of human Caki1 cells after 48 hrs by cell counting analysis; conditions: at 10 µM
# UACC-257 = assay: Growth inhibition of human UACC257 cells after 48 hrs by cell counting analysis; conditions: at 10 µM
# [10] = Antiproliferative activity against human non-small cell lung cancer cells after 48 hrs by cell counting analysis; conditions: Cancer cell lines
# SK-MEL-5 = assay: Growth inhibition of human SK-MEL-5 cells after 48 hrs by cell counting analysis; conditions: at 10 µM
# RPMI-8226 = assay: Growth inhibition of human RPMI8226 cells after 48 hrs by cell counting analysis; conditions: at 10 µM
# UO-31 = assay: Growth inhibition of human UO31 cells after 48 hrs by cell counting analysis; conditions: at 10 µM
# [11] = Antiproliferative activity against human ovarian cancer cells after 48 hrs by cell counting analysis; conditions: Cancer cell lines
# M14 = assay: Growth inhibition of human M14 cells after 48 hrs by cell counting analysis; conditions: at 10 µM
# [12] = read-out: LC50 (the source's name)
compound,measurement,setting,value
O=C(CCCl)Nc1nc(-c2ccc(Cl)cc2)cs1,growth inhibition (GI),LOX IMVI,43.1%
same,growth inhibition (GI),OVCAR-4,16.4%
same,growth inhibition (GI),U-251,55.4%
same,growth inhibition (GI),MCF7,55.8%
same,growth inhibition (GI),NCI-H522,95.6%
same,growth inhibition (GI),HCC 2998,15.8%
same,growth inhibition (GI),MOLT-4,61.3%
same,growth inhibition (GI),HOP-62,49%
same,growth inhibition (GI),ACHN,39.2%
same,growth inhibition (GI),OVCAR-5,35.7%
same,growth inhibition (GI),SNB-19,26.2%
same,growth inhibition (GI),HOP-92,Active
same,growth inhibition (GI),SK-MEL-2,72.7%
same,growth inhibition (GI),RXF 393,Active
same,growth inhibition (GI),SK-OV-3,25.7%
same,growth inhibition (GI),UACC-62,38.7%
same,GI50,[1],2.8 µM
same,TGI,[1],13.8 µM
same,CC50,[1]; [12],42.2 µM
same,growth inhibition (GI),HCT-116,79.3%
same,growth inhibition (GI),SW-620,76%
same,growth inhibition (GI),CCRF-CEM,88.3%
same,growth inhibition (GI),A549,39.9%
same,growth inhibition (GI),Malme-3M,44%
same,growth inhibition (GI),NCI-H226,51%
same,growth inhibition (GI),EKVX,29.6%
same,growth inhibition (GI),IGROV-1,48.9%
same,growth inhibition (GI),PC-3,59.7%
same,growth inhibition (GI),[2],51.2%
same,growth inhibition (GI),SR,77.7%
same,GI50,[3],1.7 µM
same,TGI,[3],7.9 µM
same,CC50,[3]; [12],32.1 µM
same,growth inhibition (GI),KM12,43.8%
same,growth inhibition (GI),SN12C,48.3%
same,growth inhibition (GI),SF-539,94.6%
same,growth inhibition (GI),MDA-MB-231,44.6%
same,growth inhibition (GI),SF-295,29.8%
same,growth inhibition (GI),SK-MEL-28,21.2%
same,growth inhibition (GI),MDA-MB-435,68.1%
same,growth inhibition (GI),BT-549,89.9%
same,growth inhibition (GI),[4],16.9%
same,growth inhibition (GI),SF-268,51.7%
same,GI50,[5],3.2 µM
same,TGI,[5],13.1 µM
same,CC50,[5]; [12],47.6 µM
same,growth inhibition (GI),SNB-75,58.8%
same,growth inhibition (GI),HL-60,28.5%
same,growth inhibition (GI),T47D,52.1%
same,GI50,[6],3.1 µM
same,TGI,[6],14.7 µM
same,CC50,[6]; [12],50.9 µM
same,growth inhibition (GI),OVCAR-8,52.8%
same,GI50,[7],2.4 µM
same,TGI,[7],8.8 µM
same,CC50,[7]; [12],55.9 µM
same,growth inhibition (GI),MDA-MB-468,Active
same,GI50,[8],3.9 µM
same,TGI,[8],13.5 µM
same,CC50,[8]; [12],44 µM
same,GI50,[9],2.2 µM
same,TGI,[9],8.9 µM
same,CC50,[9]; [12],90.2 µM
same,growth inhibition (GI),TK-10,<10%
same,growth inhibition (GI),K562,63%
same,growth inhibition (GI),OVCAR-3,89.8%
same,growth inhibition (GI),HT-29,78%
same,growth inhibition (GI),HCT-15,61.4%
same,growth inhibition (GI),NCI-H23,29%
same,growth inhibition (GI),CAKI-1,52.5%
same,growth inhibition (GI),UACC-257,43%
same,GI50,[10],6.1 µM
same,TGI,[10],19 µM
same,CC50,[10]; [12],51.5 µM
same,growth inhibition (GI),SK-MEL-5,46.8%
same,growth inhibition (GI),RPMI-8226,92.8%
same,growth inhibition (GI),UO-31,70.1%
same,GI50,[11],4.1 µM
same,TGI,[11],21.8 µM
same,CC50,[11]; [12],67 µM
same,growth inhibition (GI),M14,44.7%
